Measurements: US20060293374A1, “Substituted isothiazolones” (priority 2005, published 2006)

How the values were obtained:
Neutrophil LTB4 = Neutrophil LTB4 assay (calcium ionophore challenge, EIA); assay type: cell-based; conditions: test concentration of 5 μM, human neutrophils, calcium ionophore 1 μM; for inhibition at 5 µM: Neutrophil, read-out: LTB4 percent inhibition
Protocol: Neutrophils purified from human blood were resuspended in HBSS buffer containing calcium and magnesium to a cell density of 1×10^6/mL. Purified neutrophils were then incubated with test compounds at a test concentration of 5 μM for 15 min at 37° C. Following incubation, the cells were challenged with calcium ionophore (1 μM final) for 15 minutes at 37° C. Negative control wells were incubated with equal volume of vehicle. The reaction was stopped by transferring the plate to ice for 5 minutes. The plate was centrifuged at 1500 RPM for 5 min at 4° C. LTB4 was calculated in cell free supernatants by EIA (Assay Design Inc).

[1] = test system: TXB2 Released by Human Platelets; assay: Ionophore and arachidonic acid induced TXB2 released by human platelets (EIA); assay type: cell-based; conditions: human platelet-rich plasma; for IC50: challenge with calcium ionophore (10 μM) or arachidonic acid (50 μM); for inhibition at 1 µM: test concentration of 1 μM, calcium ionophore or arachidonic acid challenge, read-out: TXB2 percent inhibition
Protocol: Ionophore and Arachidonic Acid Induced TXB2 Released by Human Platelets
The plate was incubated for 15 minutes at 37° C. Following incubation, platelets were challenged with calcium ionophore (final 10 μM) or arachidonic acid (AA) (final 50 μM) and the plate was further incubated at 37° C. for 15 min. The plate was transferred to an ice bed for 5 min in order to stop the reaction. Supernatants were assayed for TXB2 production by EIA (Assay Design Inc) after diluting with assay buffer (Assay Design Inc).

## O=c1cc(Cl)sn1Cc1csc2ccc(Cl)cc12 [Cpd 19, 5-chloro-2-(5-chloro-benzo[b]thiophen-3-ylmethyl)-isothiazol-3-one]
Neutrophil LTB4
  inhibition at 5 µM: 100%
[1]
  IC50: 1000 nM

## O=c1ccsn1Cc1csc2ccccc12 [Cpd 12, 2-benzo[b]thiophen-3-ylmethyl-isothiazol-3-one]
Neutrophil LTB4
  inhibition at 5 µM: 89%
[1]
  IC50: 750 nM

## O=c1cc(Cl)sn1C1CCc2ccccc21 (stereo not drawn) [Cpd 3, 5-chloro-2-indan-1-yl-isothiazol-3-one]
Neutrophil LTB4
  inhibition at 5 µM: 86%
[1]
  IC50: 900 nM

## O=CC#Cc1cccc(Cn2sc(Cl)cc2=O)c1 [Cpd 60, [3-(5-chloro-3-oxo-3H-isothiazol-2-ylmethyl)-phenyl]-propynal]
Neutrophil LTB4
  inhibition at 5 µM: 100%
[1]
  inhibition at 1 µM: 72%

## O=c1cc(Cl)sn1Cc1ccc2ccccc2c1 [Cpd 14, 5-chloro-2-naphthalen-2-ylmethyl-isothiazol-3-one]
Neutrophil LTB4
  inhibition at 5 µM: 96%
[1]
  IC50: 350 nM

## O=c1cc(Cl)sn1Cc1ccc(S(=O)(=O)c2ccccc2)cc1 [Cpd 38, 5-chloro-2-(4-benzenesulfonyl-benzyl)-isothiazol-3-one]
Neutrophil LTB4
  inhibition at 5 µM: 93%
[1]
  IC50: 900 nM

## O=c1ccsn1Cc1cccc(-c2ccncc2)c1 [Cpd 50, 2-(3-pyridin-4-yl-benzyl)-isothiazol-3-one]
Neutrophil LTB4
  inhibition at 5 µM: 100%
[1]
  IC50: 500 nM

## O=c1c(Cl)c(Cl)sn1C(c1ccccc1)c1ccccn1 (stereo not drawn) [Cpd 33, 4,5-dichloro-2-(phenyl-pyridin-2-yl-methyl)-isothiazol-3-one]
Neutrophil LTB4
  inhibition at 5 µM: 95%
[1]
  IC50: 200 nM

## O=c1c(Cl)c(Cl)sn1Cc1csc2ccccc12 [Cpd 10, 2-benzo[b]thiophen-3-ylmethyl-4,5-dichloro-isothiazol-3-one]
Neutrophil LTB4
  inhibition at 5 µM: 100%
[1]
  inhibition at 1 µM: 84%

## O=c1ccsn1Cc1nc(-c2cccs2)sc1Cl [Cpd 63, 2-(5-chloro-2-thiophen-2-yl-thiazol-4-ylmethyl)-isothiazol-3-one]
Neutrophil LTB4
  inhibition at 5 µM: 86%
[1]
  inhibition at 1 µM: 42%

## C#Cc1ccc(Cn2sc(Cl)cc2=O)cc1 [Cpd 40, 5-chloro-2-(4-ethynyl-benzyl)-isothiazol-3-one]
Neutrophil LTB4
  inhibition at 5 µM: 100%
[1]
  IC50: 200 nM

## O=Cc1cccc(Cn2sc(Cl)cc2=O)c1 [Cpd 59, 5-chloro-2-(3-formylbenzyl)-isothiazol-3-one]
Neutrophil LTB4
  inhibition at 5 µM: 96%
[1]
  IC50: 600 nM

## O=c1ccsn1Cc1ccc(-c2csnn2)cc1 [Cpd 22, 2-(4-[1,2,3]thiadiazol-4-yl-benzyl)-isothiazol-3-one]
Neutrophil LTB4
  inhibition at 5 µM: 50%
[1]
  IC50: 1200 nM

## CC(=O)c1ccc(Cn2sccc2=O)cc1 [Cpd 25, 2-(4-acetylbenzyl)-isothiazol-3-one]
Neutrophil LTB4
  inhibition at 5 µM: 54%
[1]
  IC50: 1000 nM

## O=c1cc(Cl)sn1Cc1csc2ccccc12 [Cpd 11, 2-benzo[b]thiophen-3-ylmethyl-5-chloro-isothiazol-3-one]
Neutrophil LTB4
  inhibition at 5 µM: 100%
[1]
  inhibition at 1 µM: 68%

## Cc1nc(-c2cccc(-n3sc(Cl)cc3=O)c2)c(Cl)s1 [Cpd 44, 5-chloro-2-[3-(2-methyl-5-chloro-thiazol-4-yl)-phenyl]-isothiazol-3-one]
Neutrophil LTB4
  inhibition at 5 µM: 69%
[1]
  IC50: 2000 nM

## C=Cc1ccc(Cn2sc(Cl)cc2=O)cc1 [Cpd 27, 5-chloro-2-(4-vinyl-benzyl)-isothiazol-3-one]
Neutrophil LTB4
  inhibition at 5 µM: 100%
[1]
  IC50: 800 nM

## O=c1cc(Cl)sn1Cc1nc(-c2cccs2)sc1Cl [Cpd 61, 5-chloro-2-(5-chloro-2-thiophen-2-yl-thiazol-4-ylmethyl)-isothiazol-3-one]
Neutrophil LTB4
  inhibition at 5 µM: 100%
[1]
  inhibition at 1 µM: 49%

## O=c1cc(Cl)sn1Cc1cccc2ccccc12 [Cpd 1, 5-chloro-2-naphthalen-1-ylmethyl-isothiazol-3-one]
Neutrophil LTB4
  inhibition at 5 µM: 99%
[1]
  IC50: 3000 nM

## O=c1c(Cl)c(Cl)sn1[C@H]1C[C@@H]1c1ccccc1 [Cpd 39, (1S,2R)-4,5-dichloro-2-(2-phenyl-cyclopropyl)-isothiazol-3-one]
Neutrophil LTB4
  inhibition at 5 µM: 94%
[1]
  IC50: 200 nM

## N#Cc1cccc(C#Cc2ccc(Cn3sc(Cl)cc3=O)cc2)c1 [Cpd 43, 3-[4-(5-chloro-3-oxo-3H-isothiazol-2ylmethyl)-phenylethynyl]-benzonitrile]
Neutrophil LTB4
  inhibition at 5 µM: 100%
[1]
  IC50: 1600 nM

## CCCCCS(=O)(=O)c1ccc(Cn2sc(Cl)cc2=O)cc1 [Cpd 41, 5-chloro-2-[4-(pentane-1-sulfonyl)-benzyl]-isothiazol-3-one]
Neutrophil LTB4
  inhibition at 5 µM: 100%
[1]
  IC50: 500 nM

## CS(=O)(=O)c1ccc(Cn2sc(Cl)c(Cl)c2=O)cc1 [Cpd 29, 4,5-dichloro-2-(4-methanesulfonyl-benzyl)-isothiazol-3-one]
Neutrophil LTB4
  inhibition at 5 µM: 64%
[1]
  IC50: 300 nM

## O=c1cc(Cl)sn1Cc1ccc(-n2cccn2)cc1 [Cpd 56, 5-chloro-2-(4-pyrazol-1-yl)-benzyl-isothiazol-3-one]
Neutrophil LTB4
  LTB4 percent inhibition: 48%
[1]
  IC50: 800 nM

## O=c1cc(Cl)sn1CC1CCCc2ccccc21 (stereo not drawn) [Cpd 4, 5-chloro-2-(1,2,3,4-tetrahydro-naphthalen-1-ylmethyl)-isothiazol-3-one]
Neutrophil LTB4
  inhibition at 5 µM: 100%
[1]
  IC50: 3300 nM

## COC(=O)c1ccc(Cn2sc(Cl)cc2=O)cc1 [Cpd 37, 4-(5-chloro-3-oxo-3H-isothiazol-2-ylmethyl)-benzoic acid methyl ester]
Neutrophil LTB4
  inhibition at 5 µM: 95%
[1]
  IC50: 500 nM

## Cc1nc(-c2cccc(-n3sccc3=O)c2)cs1 [Cpd 46, 2-[3-(2-methyl-thiazol-4-yl)-phenyl]-isothiazol-3-one]
Neutrophil LTB4
  inhibition at 5 µM: 64%
[1]
  IC50: 1000 nM

## O=C(c1ccccc1)c1ccc(Cn2sc(Cl)c(Cl)c2=O)cc1 [Cpd 34, 4,5-dichloro-2-(4-benzoylbenzyl)-isothiazol-3-one]
Neutrophil LTB4
  inhibition at 5 µM: 84%
[1]
  IC50: 400 nM

## O=c1c(Cl)c(Cl)sn1Cc1ccc2ccccc2c1 [Cpd 15, 4,5-dichloro-2-naphthalen-2-ylmethyl-isothiazol-3-one]
Neutrophil LTB4
  inhibition at 5 µM: 75%
[1]
  IC50: 330 nM

## O=c1cc(Cl)sn1[C@H]1C[C@@H]1c1ccccc1 [Cpd 42, (1S,2R)-5-chloro-2-(2-phenyl-cyclopropyl)-isothiazol-3-one]
Neutrophil LTB4
  inhibition at 5 µM: 61%
[1]
  IC50: 400 nM

## O=c1cc(Cl)sn1Cc1cccc(-c2csnn2)c1 [Cpd 32, 5-chloro-2-(3-[1,2,3]thiadiazol-4-ylbenzyl)-isothiazol-3-one]
Neutrophil LTB4
  inhibition at 5 µM: 100%
[1]
  IC50: 600 nM

## O=c1ccsn1Cc1csc(-c2cccs2)n1 [Cpd 64, 2-(2-thiophen-2-yl-thiazol-4-ylmethyl)-isothiazol-3-one]
Neutrophil LTB4
  inhibition at 5 µM: 89%
[1]
  inhibition at 1 µM: 39%

## O=c1cc(Cl)sn1Cc1nc(-c2ccccc2)sc1Cl [Cpd 52, 5-chloro-2-(5-chloro-2-phenyl-thiazol-4-ylmethyl)-isothiazol-3-one]
Neutrophil LTB4
  inhibition at 5 µM: 81%
[1]
  IC50: 400 nM

## O=c1c(Cl)c(Cl)sn1Cc1ccc(-c2csnn2)cc1 [Cpd 24, 4,5-dichloro-2-(4-[1,2,3]thiadiazol-4-yl-benzyl)-isothiazol-3-one]
Neutrophil LTB4
  inhibition at 5 µM: 52%
[1]
  IC50: 500 nM

## Cc1nc(-c2ccc(Cn3sc(Cl)cc3=O)cc2)cs1 [Cpd 31, 5-chloro-2-[4-(2-methyl-thiazol-4-yl)-benzyl]-isothiazol-3-one]
Neutrophil LTB4
  inhibition at 5 µM: 88%
[1]
  inhibition at 1 µM: 54%

## O=c1cc(Cl)sn1Cc1ccc(-c2ccco2)cc1 [Cpd 23, 5-chloro-2-(4-furan-2-yl-benzyl)-isothiazol-3-one]
Neutrophil LTB4
  inhibition at 5 µM: 100%
[1]
  IC50: 300 nM
